The target of data set [1] is human MCH-1 receptor (Homo sapiens (Human), UniProt Q99705). Kind of data set: Binding Assay for Human Melanin-Concentrating Hormone (MCH-1) Receptor. To be noted: radioligand displacement, membranes from CHO-K1 cells expressing human MCH-1 receptor; Ki from IC50 by Cheng Prusoff equation; read-out: MCH1 Ki. In a few lines: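 Membranes from CHO-K1 cells stably expressing human MCH-1 incubated 60 min at 25 °C with 1.4 nM tritiated indazolyl-pyridinone radioligand in 50 mM Tris-HCl pH 7.4. Bound counts by filtration and scintillation; IC50 and nH by Hill fit, Ki by Cheng–Prusoff.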

The Ki is a measure of affinity in units of concentration, obtained from inhibition or displacement. In general, melting point refers to the temperature of the solid-liquid transition.

Chain of human MCH-1 receptor (Q99705 whole entry): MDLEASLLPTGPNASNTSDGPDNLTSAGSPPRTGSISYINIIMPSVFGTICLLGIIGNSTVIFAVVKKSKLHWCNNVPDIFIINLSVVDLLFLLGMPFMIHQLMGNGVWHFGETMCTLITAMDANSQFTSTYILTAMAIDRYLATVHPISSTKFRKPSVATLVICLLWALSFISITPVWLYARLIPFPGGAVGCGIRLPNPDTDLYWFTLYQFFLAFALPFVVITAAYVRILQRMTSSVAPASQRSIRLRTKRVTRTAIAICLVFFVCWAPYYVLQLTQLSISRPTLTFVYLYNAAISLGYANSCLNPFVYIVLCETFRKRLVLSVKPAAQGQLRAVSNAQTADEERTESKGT

For the molecule `Cl.O=c1cc(OCc2ccccc2)ccn1-c1ccc2c3c([nH]c2c1)CCNCC3` [Example 7, 4-(Benzyloxy)-1-(1,2,3,4,5,6-hexahydroazepino[4,5-b]indol-8-yl)pyridin-2(1H)-one hydrochloride], the melting point lay within 258 to 260 °C. For the same molecule, the Ki in data set [1] turned out to be 6 nM.

The molecule `CCN1CCc2c(n(C)c3cc(-n4ccc(OCc5ccccc5)cc4=O)ccc23)CC1.Cl` [Example 14, 4-(Benzyloxy)-1-(3-ethyl-6-methyl-1,2,3,4,5,6-hexahydroazepino[4,5-b]indol-8-yl)pyridin-2(1H)-one hydrochloride] came in with a melting point of 246 to 248 °C. For the same molecule, the Ki in data set [1] came out at 9.6 nM.

In the case of `CC(C)N1CCc2c(n(C)c3cc(-n4ccc(OCc5ccccc5)cc4=O)ccc23)CC1.Cl` [Example 15, 4-(Benzyloxy)-1-(3-isopropyl-6-methyl-1,2,3,4,5,6-hexahydroazepino[4,5-b]indol-8-yl)pyridin-2(1H)-one hydrochloride], the melting point lay within 256 to 258 °C. For the same molecule, the Ki in data set [1] was 10.4 nM.

`CC(C)N1CCc2[nH]c3cc(-n4ccc(OCc5ccccc5)cc4=O)ccc3c2CC1.Cl` [Example 17, 4-(Benzyloxy)-1-(3-isopropyl-1,2,3,4,5,6-hexahydroazepino[4,5-b]indol-8-yl)pyridin-2(1H)-one hydrochloride] registered a melting point of 152 to 155 °C. The inhibition constant Ki in data set [1] came out at 7.2 nM.

On to `Cl.Cn1c2c(c3ccc(-n4ccc(OCc5ccccc5)cc4=O)cc31)CCCNC2` [Example 18, 4-(Benzyloxy)-1-(10-methyl-1,2,3,4,5,10-hexahydroazepino[3,4-b]indol-8-yl)pyridin-2(1H)-one hydrochloride], for which the melting point is 210 to 218 °C (dec.). The Ki in data set [1] worked out at 11.8 nM.

Regarding `Cl.Cn1c2c(c3ccc(-n4ccc(OCc5ccc(F)cn5)cc4=O)cc31)CCCNC2` [Example 19, 4-((5-Fluoropyridin-2-yl)methoxy)-1-(10-methyl-1,2,3,4,5,10-hexahydroazepino[3,4-b]indol-8-yl)pyridin 2(1H)-one hydrochloride], the melting point was 268 to 275 °C (dec.). Also, in data set [1], the Ki was 14.8 nM.

As to `Cl.Cn1c2c(c3ccc(-n4ccc(-c5ccc(C(F)(F)F)cn5)cc4=O)cc31)CCCNC2` [Example 20], the melting point is 288 to 296 °C (dec.).

Consider `Cl.Cn1c2c(c3ccc(-n4ccc(OCc5ccccc5)cc4=O)cc31)CNCCC2` [Example 21, 4-(Benzyloxy)-1-(6-methyl-1,2,3,4,5,6-hexahydroazepino[4,3-b]indol-8-yl)pyridin-2(1H)-one hydrochloride], for which the melting point was 283 to 287 °C (dec.). Moreover, the Ki in data set [1] is 4.7 nM.

Regarding `Cl.Cn1c2c(c3ccc(-n4ccc(-c5ccc(C(F)(F)F)cn5)cc4=O)cc31)CNCCC2` [Example 23, 1-(6-Methyl-1,2,3,4,5,6-hexahydroazepino[4,3-b]indol-8-yl)-4-(5-(trifluoromethyl)pyridin-2-yl)pyridin-2(1H)-one hydrochloride], the melting point was 264 to 270 °C (dec.). In addition, the Ki in data set [1] was determined as 4.7 nM.

As to `Cl.Cn1c2c(c3ccc(-n4ccc(-c5ccc(C(F)(F)F)cc5)cc4=O)cc31)CNCCC2` [Example 26], the melting point was 264 to 270 °C (dec.).

`Cl.Cn1c2c(c3ccc(-n4ccc(-c5ccc(C(F)(F)F)nc5)cc4=O)cc31)CNCCC2` [Example 27, 1-(6-Methyl-1,2,3,4,5,6-hexahydroazepino[4,3-b]indol-8-yl)-4-(6-(trifluoromethyl)pyridin-3-yl)pyridin-2(1H)-one hydrochloride]: the melting point is 274 to 280 °C (dec.). Besides, the Ki in data set [1] is 5.3 nM.

As for `Cl.Cn1c2c(c3ccc(-n4ccc(-c5ccc(C(F)(F)F)nn5)cc4=O)cc31)CNCCC2` [Example 28, 1-(6-Methyl-1,2,3,4,5,6-hexahydroazepino[4,3-b]indol-8-yl)-4-(6-(trifluoromethyl)pyridazin-3-yl)pyridin-2(1H)-one hydrochloride], the melting point is 248 to 252 °C (dec.). For the same molecule, the Ki in data set [1] was determined as 10.9 nM.

On to `CSc1ccc(-c2ccn(-c3ccc4c5c(n(C)c4c3)CCCNC5)c(=O)c2)cc1.Cl` [Example 32, 1-(6-Methyl-1,2,3,4,5,6-hexahydroazepino[4,3-b]indol-8-yl)-4-(4-(methylthio)phenyl)pyridin-2(1H)-one hydrochloride], for which the melting point is 250 to 255 °C (dec.). In addition, the Ki in data set [1] turned out to be 4.9 nM.

For `Cc1ccc(-c2ccn(-c3ccc4c5c(n(C)c4c3)CCCNC5)c(=O)c2)cn1.Cl` [Example 33, 1-(6-Methyl-1,2,3,4,5,6-hexahydroazepino[4,3-b]indol-8-yl)-4-(6-methylpyridin-3-yl)pyridin-2(1H)-one hydrochloride], the melting point is 245 to 250 °C (dec.). For the same molecule, the Ki in data set [1] stood at 17.5 nM.

On to `Cl.O=c1cc(-c2ccc(C(F)(F)F)cn2)ccn1-c1ccc2c3c([nH]c2c1)CCCNC3` [Example 36, 1-(1,2,3,4,5,6-Hexahydroazepino[4,3-b]indol-8-yl)-4-(5-(trifluoromethyl)pyridin-2-yl)pyridin-2(1H)-one hydrochloride], for which the melting point is 310 to 320 °C (dec.). Further, the Ki in data set [1] worked out at 12.2 nM.

On to `Cl.O=c1cc(-c2ccc(C(F)(F)F)nn2)ccn1-c1ccc2c3c([nH]c2c1)CCCNC3` [Example 37, 1-(1,2,3,4,5,6-Hexahydroazepino[4,3-b]indol-8-yl)-4-(6-(trifluoromethyl)pyridazin-3-yl)pyridin-2(1H)-one hydrochloride], for which the melting point was 310 to 315 °C (dec.). Moreover, the Ki in data set [1] stood at 29.2 nM.

The molecule `Cn1c2c(c3ccc(-n4ccc(OCc5ccccc5)cc4=O)cc31)C(=O)NCCC2` [Example 38] showed a melting point of 178 to 181 °C. Besides, the Ki in data set [1] stood at 100 nM.

On to `Cl.Cn1c2c(c3ccc(-n4ccc(OCc5ccc(F)cn5)cc4=O)cc31)CCNCC2` [Example 40], for which the melting point was 194 to 202 °C (dec.).

As for `Cl.Cn1c2c(c3ccc(-n4ccc(-c5ccc(C(F)(F)F)cc5)cc4=O)cc31)CCNCC2` [Example 41], the melting point is 306 to 310 °C (dec.).

For `Cl.Cn1c2c(c3ccc(-n4ncc(OCc5ccc(C(F)(F)F)nc5)cc4=O)cc31)CCNCC2` [Example 47, 2-(6-Methyl-1,2,3,4,5,6-hexahydroazepino[4,5-b]indol-8-yl)-5-((6-(trifluoromethyl)pyridin-3-yl)methoxy)pyridazin-3(2H)-one hydrochloride], the melting point was in the range of 270 to 274 °C. For the same molecule, the Ki in data set [1] worked out at 74 nM.

In turn, `CC(=O)N1CCc2c(n(C)c3cc(-n4ccc(OCc5ccc(F)cn5)cc4=O)ccc23)CC1.Cl` [Example 48, 1-(3-Acetyl-6-methyl-1,2,3,4,5,6-hexahydroazepino[4,5-b]indol-8-yl)-4-((5-fluoropyridin-2-yl)methoxy)pyridin-2(1H)-one] registered a melting point of 88 to 94 °C. The Ki in data set [1] came to 60 nM.

Regarding `CC(=O)N1CCc2[nH]c3cc(-n4ccc(OCc5ccccc5)cc4=O)ccc3c2CC1` [Example 54, 1-(3-Acetyl-1,2,3,4,5,6-hexahydroazepino[4,5-b]indol-8-yl)-4-(benzyloxy)pyridin-2(1H)-one], the melting point was in the range of 250 to 254 °C. Further, in data set [1], the Ki turned out to be 112 nM.

The record behind these values is US8637501B2, “Azinone-substituted azepino[b]indole and pyrido-pyrrolo-azepine MCH-1 antagonists, methods of making, and use thereof” (Albany Molecular Research, Inc., priority 2009, dated 2014).
